From US7342034B2, “Fused heterocyclic compounds and analogs thereof, modulators of nuclear hormone receptor function” (Bristol-Myers Squibb Company, priority 2001, dated 2008) come the findings set out here.

The target of experiment [1] is T1, AR (Rattus norvegicus, UniProt P15207).
T1 sequence (P15207 1-902): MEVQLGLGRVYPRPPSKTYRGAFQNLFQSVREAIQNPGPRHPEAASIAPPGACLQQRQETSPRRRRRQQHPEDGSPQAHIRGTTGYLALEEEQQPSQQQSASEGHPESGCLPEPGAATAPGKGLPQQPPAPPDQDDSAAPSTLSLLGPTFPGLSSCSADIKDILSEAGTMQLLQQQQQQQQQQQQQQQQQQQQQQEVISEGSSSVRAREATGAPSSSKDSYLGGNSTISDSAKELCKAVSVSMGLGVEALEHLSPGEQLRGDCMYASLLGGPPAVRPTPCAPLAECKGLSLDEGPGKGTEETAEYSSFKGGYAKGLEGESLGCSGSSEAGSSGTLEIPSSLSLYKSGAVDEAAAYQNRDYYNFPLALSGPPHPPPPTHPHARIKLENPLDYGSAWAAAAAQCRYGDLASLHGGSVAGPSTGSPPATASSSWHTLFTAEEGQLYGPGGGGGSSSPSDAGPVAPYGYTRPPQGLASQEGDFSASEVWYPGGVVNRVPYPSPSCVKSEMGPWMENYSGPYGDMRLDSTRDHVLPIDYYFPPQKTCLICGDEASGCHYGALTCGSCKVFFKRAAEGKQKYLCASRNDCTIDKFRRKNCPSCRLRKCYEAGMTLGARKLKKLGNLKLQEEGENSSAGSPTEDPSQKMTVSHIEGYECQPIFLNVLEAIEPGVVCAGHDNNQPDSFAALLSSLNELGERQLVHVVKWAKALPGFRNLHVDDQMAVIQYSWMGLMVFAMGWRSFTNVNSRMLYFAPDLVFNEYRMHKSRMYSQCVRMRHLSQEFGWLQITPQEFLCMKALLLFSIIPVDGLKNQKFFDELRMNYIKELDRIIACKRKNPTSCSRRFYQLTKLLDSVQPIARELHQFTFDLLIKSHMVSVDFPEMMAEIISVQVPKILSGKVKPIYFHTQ
The conditions noted are these: castrated rats. From the text: The activity of compounds of the present invention as AR agonists was investigated in an immature male rat model, a recognized test of anabolic effects in muscle and sustaining effects in sex organs for a given compound, as described in L. G. Hershberger et al., Proc. Soc. […] Yak. Ken. Nem.
The basis of this assay lies in the well-defined action of androgenic agents on the maintenance and growth of muscle tissues and sexual accessory organs in animals and man. […] J. Anat. […] Ital. Biol. Sper. […] II. […] Ital. Biol. Sper. […] As described above, the effects of androgens on maintenance of male sexual accessory organs, such as the prostate and seminal vesicles, is well described. Castration results in rapid involution and atrophy of the prostate and seminal vesicles. This effect can be reversed by exogenous addition of androgens. Since both the levator ani muscle and the male sex organs are the tissues most responsive to the effects of androgenic agents, this model is used to determine the androgen dependent reversal of atrophy in the levator ani muscle and the sex accessory organs in immature castrated rats. Sexually mature rats (200-250 g, 6-8 weeks-old, Sprague-Dawley, Harlan) were acquired castrated from the vendor (Taconic). The rats were divided into groups and treated daily for 7 to 14 days with one of the following: • 1. Control vehicle • 2. […]

Experiment [2] concerns the target T1, AR.
Another experiment addresses wild type AR. The conditions noted are these: read-out: Kd for [^3H]-DHT; MDA 453 cells, saturation analysis, Scatchard. The protocol: For the saturation analysis, the difference between the total binding and the non-specific binding, was defined as specific binding.
Two replicates were used for each sample. After 4 hours at 37° C., cells were washed, harvested and counted as described above. […] The KI, values were determined by application of the Cheng-Prusoff equation to the IC50 values, where:
[formula] After correcting for non-specific binding, IC50 values were determined. […]

Read-outs that look alike come from different tables or passages of the source.

A word on the Kd: it is the equilibrium constant for the complex coming apart.

`CCC(=O)O[C@H]1CC[C@H]2[C@@H]3CCC4=CC(=O)CC[C@]4(C)[C@H]3CC[C@]12C` [TP, testosterone propionate]: the “EC50 (increase in organ weight)” value at AR [1] (3 days dosing) is on record as about 0.03 mg; at AR [2] (immature castrated rats, 3 days dosing), about 0.03 mg. Also, the “higher potency than free T” value on AR [1] (organ weight increase) was 10-30 fold; on AR [2] (organ weight increase, immature castrated rats) it was 10-30 fold. Moreover, the ED80 at AR [2] (immature castrated rat model) is given as 0.1 mg.

With “tritiated dihydrotestosterone [[^3H]-DHT]”, on wild type AR, the Kd was determined as 0.7 nM.
